Here are results for 44 molecules from patent US6716833B2, “Acetylenic α-amino acid-based sulfonamide hydroxamic acid tace inhibitors” (priority 1999, dated 2004).

Sequence of TNF-α converting enzyme (TACE) (P78536 215-824, species assumed): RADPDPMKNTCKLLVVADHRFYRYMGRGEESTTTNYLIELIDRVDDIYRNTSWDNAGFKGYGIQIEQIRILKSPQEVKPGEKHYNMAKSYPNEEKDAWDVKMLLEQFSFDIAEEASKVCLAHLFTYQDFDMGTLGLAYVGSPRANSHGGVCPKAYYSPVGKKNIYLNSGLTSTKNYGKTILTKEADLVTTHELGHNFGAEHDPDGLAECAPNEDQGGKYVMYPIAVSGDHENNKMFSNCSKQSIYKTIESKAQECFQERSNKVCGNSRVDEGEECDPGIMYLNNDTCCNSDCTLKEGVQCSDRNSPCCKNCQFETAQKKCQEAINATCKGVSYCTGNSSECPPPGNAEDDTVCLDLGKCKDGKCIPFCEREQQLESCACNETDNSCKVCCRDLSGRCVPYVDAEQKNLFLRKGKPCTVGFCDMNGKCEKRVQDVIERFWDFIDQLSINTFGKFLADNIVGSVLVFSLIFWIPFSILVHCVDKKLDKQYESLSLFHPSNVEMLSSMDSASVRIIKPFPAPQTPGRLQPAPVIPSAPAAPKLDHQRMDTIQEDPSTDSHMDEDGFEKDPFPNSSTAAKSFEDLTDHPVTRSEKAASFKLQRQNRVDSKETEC

One experiment concerns the target TNF-α converting enzyme (TACE) (Homo sapiens, UniProt P78536). Nature of the experiment: TACE inhibition (fluorescent peptidyl substrate). It counts as biochemical. To be noted: 1 uM; Table 15.
In general, % Inhibition refers to the drop in the measured response relative to a control, in per cent. A lower % Inhibition goes with little suppression. `CC#CCOc1ccc(S(=O)(=O)NC(CCC(=O)O)C(=O)NO)cc1` (stereo not shown) [Example 86]: the “% Inhibition at 1 uM (In Vitro Inhibition of TACE)” value (from here on “% Inhibition at 1 uM”) is 37.5%.
On the same count and under the same terms, then `CC#CCOc1ccc(S(=O)(=O)NC(CCN)C(=O)NO)cc1` (stereo not shown) [Example 70], with 21.1%; and `CC#CCOc1ccc(S(=O)(=O)NC(CO)C(=O)NO)cc1` (stereo not shown) [Example 98], with 2.5%.
On the same count and under the same terms, the result for `CC#CCOc1ccc(S(=O)(=O)NC(Cc2ccc(OCc3ccccc3)cc2)C(=O)NO)cc1` (stereo not shown) [Example 103] reads 52.8%; that for `CC#CCOc1ccc(S(=O)(=O)NC(Cc2ccc(O)cc2)C(=O)NO)cc1` (stereo not shown) [Example 102], 27.3%; that for `CC#CCOc1ccc(S(=O)(=O)NC(C(=O)NO)C(C)OCc2ccccc2)cc1` (stereo not shown) [Example 99], 28.5%.
For the molecule `CC#CCOc1ccc(S(=O)(=O)NC(CC(N)=O)C(=O)NO)cc1` (stereo not shown) [Example 66], the “% Inhibition at 1 uM” value amounted to 45.6%.
For the molecule `CC#CCOc1ccc(S(=O)(=O)NC(CSC(C)(C)C)C(=O)NO)cc1` (stereo not shown) [Example 73], the “% Inhibition at 1 uM” value is on record as 79%.

Staying with this experiment, now noted: 1 uM; Table 15; read-out: % Inhibition at 1 uM (In Vitro Inhibition of TACE).
The term inhibition denotes the relative decrease from the control value, in per cent. In the case of `CC#CCOc1ccc(S(=O)(=O)N[C@@H](C(=O)NO)C(C)C)cc1` [Example 85], the inhibition at 1 µM is 102%.

Still in this experiment, the particulars now being: IC 50 nM (In Vitro Inhibition of TACE), Table 15.
`CC#CCOc1ccc(S(=O)(=O)N[C@H](COCc2ccccc2)C(=O)NO)cc1` [Example 320, (2R)-3-(Benzyloxy)-2-({[4-(but-2-ynyloxy)phenyl]sulfonyl}amino)-N-hydroxypropanamide] gave an IC50 of 7.4 nM.
With `CC#CCOc1ccc(S(=O)(=O)N[C@H](CCCCN)C(=O)NO)cc1` [Example 308, (2R)-6-Amino-2-({[4-(but-2-ynyloxy)phenyl]sulfonyl}amino)-N-hydroxyhexanamide], the IC50 was 29.5 nM.
The same measure, in the same setting: then `CC#CCOc1ccc(S(=O)(=O)N2C[C@@H](O)C[C@@H]2C(=O)NO)cc1` [Example 307, (2R,4S)-1-{[4-(But-2-ynyloxy)phenyl]sulfonyl}-N,4-dihydroxypyrrolidine-2-carboxamide], with 29.4 nM; and `CC#CCOc1ccc(S(=O)(=O)N[C@H](CSCNC(C)=O)C(=O)NO)cc1` [Example 300, (2S)-3-{[(Acetylamino)methyl]thio}-2-({[4-(but-2-ynyloxy)phenyl]sulfonyl}amino)-N-hydroxypropanamide], with 11 nM.
Turning to `CC#CCOc1ccc(S(=O)(=O)N[C@H](Cc2ccc(O)cc2)C(=O)NO)cc1` [Example 84], the IC50 stood at 7.8 ± 0.4 nM.
The same measure, in the same setting: the result for `CC#CCOc1ccc(S(=O)(=O)N[C@@H](CC2CCCCC2)C(=O)NO)cc1` [Example 71] reads 402 ± 55 nM; that for `CC#CCOc1ccc(S(=O)(=O)N[C@H](CCCNC(=N)NS(=O)(=O)c2c(C)cc(OC)c(C)c2C)C(=O)NO)cc1` [Example 295], 29.3 nM; that for `CC#CCOc1ccc(S(=O)(=O)N[C@H](CCCCNC(=O)Cc2ccc(Cl)c(Cl)c2)C(=O)NO)cc1` [Example 355, (2R)-2-({[4-(But-2-ynyloxy)phenyl]sulfonyl}amino)-6-{[2-(3,4-dichlorophenyl)acetyl]amino}-N-hydroxyhexanamide], 12.4 nM.
The same measure, in the same setting: the result for `CC#CCOc1ccc(S(=O)(=O)N[C@H](CCCNC(=O)c2cccnc2)C(=O)NO)cc1` [Example 341, N-[(4R)-4-({[4-(But-2-ynyloxy)phenyl]sulfonyl}amino)-5-(hydroxyamino)-5-oxopentyl]nicotinamide] reads 4.88 nM; that for `CC#CCOc1ccc(S(=O)(=O)N[C@H](Cc2ccccc2)C(=O)NO)cc1` [Example 81], 4.99 ± 1.1 nM; that for `CC#CCOc1ccc(S(=O)(=O)N[C@@H](C(=O)NO)c2ccccc2)cc1` [Example 327, (2R)-2-({[4-(But-2-ynyloxy)phenyl]sulfonyl}amino)-N-hydroxy-2-phenylethanamide], 5.5 nM.
The same measure, in the same setting: then `CC#CCOc1ccc(S(=O)(=O)N[C@H](CCCCNC(=O)C2CCCCC2)C(=O)NO)cc1` [Example 354, N-[(5R)-5-({[4-(But-2-ynyloxy)phenyl]sulfonyl}amino)-6-(hydroxyamino)-6-oxohexyl]cyclohexanecarboxamide], with 5.89 nM; and `CC#CCOc1ccc(S(=O)(=O)N[C@@H](C(=O)NO)C(C)C)cc1` [Example 85], with 8.3 ± 2.7 nM.
In turn, `CC#CCOc1ccc(S(=O)(=O)N[C@H](CC2CCCCC2)C(=O)NO)cc1` [Example 77] came in with an IC50 of 6.9 ± 3.3 nM.
The same measure, in the same setting: then `CC#CCOc1ccc(S(=O)(=O)N[C@H](Cc2cccs2)C(=O)NO)cc1` [Example 321, (2R)-2-({[4-(But-2-ynyloxy)phenyl]sulfonyl}amino)-N-hydroxy-3-thien-2-yl-propanamide], with 4.7 nM.
The same measure, in the same setting: the result for `CC#CCOc1ccc(S(=O)(=O)N[C@H](CSCc2ccc(C)cc2)C(=O)NO)cc1` [Example 301, (2S)-2-({[4-(But-2-ynyloxy)phenyl]sulfonyl}amino)-N-hydroxy-3-[(4-methylbenzyl)thio]propanamide] reads 24.6 nM; that for `CC#CCOc1ccc(S(=O)(=O)N[C@@H](CCCCN)C(=O)NO)cc1` [Example 92], 490 ± 139 nM; that for `CC#CCOc1ccc(S(=O)(=O)N[C@H](CCCNC(C)=O)C(=O)NO)cc1` [Example 328, (2R)-5-(Acetylamino)-2-({[4-(but-2-ynyloxy)phenyl]sulfonyl}amino)-N-hydroxypentanamide], 6.26 nM.
On the same count and under the same terms, then `CC#CCOc1ccc(S(=O)(=O)N[C@@H](CCCC)C(=O)NO)cc1` [Example 93], with 546 nM.
For the molecule `CC#CCOc1ccc(S(=O)(=O)N[C@H](Cc2cnc[nH]2)C(=O)NO)cc1` [Example 306, (2R)-2-({[4-(But-2-ynyloxy)phenyl]sulfonyl}amino)-N-hydroxy-3-(1H-imidazol-5-yl)propanamide], the IC50 was found to be 8.7 nM.
The same measure, in the same setting: the result for `CC#CCOc1ccc(S(=O)(=O)N[C@H](CCCNC(=O)NCC)C(=O)NO)cc1` [Example 369] reads 14.2 nM; that for `CC#CCOc1ccc(S(=O)(=O)N[C@H](Cc2ccc([N+](=O)[O-])cc2)C(=O)NO)cc1` [Example 317, (2R)-2-({[4-(But-2-ynyloxy)phenyl]sulfonyl}amino)-N-hydroxy-3-(4-nitrophenyl)propanamide], 6.5 nM; that for `CC#CCOc1ccc(S(=O)(=O)N[C@H](CCCCNC(=O)c2cc(C)oc2C)C(=O)NO)cc1` [Example 356, N-[(5R)-5-({[4-(But-2-ynyloxy)phenyl]sulfonyl}amino)-6-(hydroxyamino)-6-oxohexyl]-2,5-dimethyl-3-furamide], 9.36 nM.
Still for that read-out and setting: then `CC#CCOc1ccc(S(=O)(=O)N[C@H](CCCNC(=O)c2sccc2Cl)C(=O)NO)cc1` [Example 333, N-[(4R)-4-({[4-(But-2-ynyloxy)phenyl]sulfonyl}amino)-5-(hydroxyamino)-5-oxopentyl]-3-chlorothiophene-2-carboxamide], with 4.21 nM; and `CC#CCOc1ccc(S(=O)(=O)N[C@H](CCCCNC(=O)c2sccc2Cl)C(=O)NO)cc1` [Example 352, N-[(5R)-5-({[4-(But-2-ynyloxy)phenyl]sulfonyl}amino)-6-(hydroxyamino)-6-oxohexyl]-3-chlorothiophene-2-carboxamide], with 4.96 nM; and `CC#CCOc1ccc(S(=O)(=O)N[C@H](CCCNC(=O)c2cccs2)C(=O)NO)cc1` [Example 368, (4R)-4-({[4-(but-2-ynyloxy)Phenyl]sulfonyl}amino)-5-(hydroxyamino)-5-oxopentylithiophene-2-carboxamide], with 151 nM.
In turn, `CC#CCOc1ccc(S(=O)(=O)N[C@H](C(=O)NO)C2CCCCC2)cc1` [Example 72] displayed an IC50 of 550 nM.
`CC#CCOc1ccc(S(=O)(=O)N[C@H](CCCCNC(=O)CCc2ccccc2)C(=O)NO)cc1` [Example 358, (2R)-2-({[4-(But-2-ynyloxy)phenyl]sulfonyl}amino)-N-hydroxy-6-[(3-phenylpropanoyl)amino]hexanamide] displayed an IC50 of 8.84 nM.
Still for that read-out and setting: the result for `CC#CCOc1ccc(S(=O)(=O)N[C@H](CCCNC(=O)OCCCCCCCC)C(=O)NO)cc1` [Example 371, Octyl(4R)-4-({[4-(but-2-ynyloxy)phenyl]sulfonyl}amino)-5-(hydroxyamino)-5-oxopentylcarbamate] reads 377 nM; that for `CC#CCOc1ccc(S(=O)(=O)N[C@H](CSC(C)(C)C)C(=O)NO)cc1` [Example 299, (2S)-3-(tert-Butylthio)-2-({[4-(but-2-ynyloxy)phenyl]sulfonyl}amino)-N-hydroxypropanamide], 10.4 nM; that for `CC#CCOc1ccc(S(=O)(=O)N[C@H](CCCNC(=O)N(C)c2ccccc2)C(=O)NO)cc1` [Example 374, (2R)-2-({[4-(but-2-ynyloxy)Phenyl]sulfonyl}amino)-N-hydroxy-5-{[(methylanilino)carbonyl]amino}pentanamide], 18.2 nM.
Same read-out and setting: the result for `CC#CCOc1ccc(S(=O)(=O)N[C@H](CCCCNC(=O)Cc2ccc([N+](=O)[O-])cc2)C(=O)NO)cc1` [Example 362, (2R)-2-({[4-(But-2-ynyloxy)phenyl]sulfonyl}amino)-N-hydroxy-6-{[2-(4-nitrophenyl)acetyl]amino}hexanamide] reads 4.55 nM; that for `CC#CCOc1ccc(S(=O)(=O)N[C@H](Cc2ccc3ccccc3c2)C(=O)NO)cc1` [Example 311, (2R)-2-({[4-(But-2-ynyloxy)phenyl]sulfonyl}amino)-N-hydroxy-3-(2-naphthyl)propanamide], 15.7 nM.
As for `CC#CCOc1ccc(S(=O)(=O)N[C@H](CCCNC(=O)c2ccc(OC)cc2)C(=O)NO)cc1` [Example 343, N-[(4R)-4-({[4-(But-2-ynyloxy)phenyl]sulfonyl}amino)-5-(hydroxyamino)-5-oxopentyl]-4-methoxybenzamide], the IC50 came out at 3.54 nM.
As to `CC#CCOc1ccc(S(=O)(=O)N[C@H](CCCNC(=O)Cc2ccccc2)C(=O)NO)cc1` [Example 345, (2R)-2-({[4-(But-2-ynyloxy)phenyl]sulfonyl}amino)-N-hydroxy-5-[(2-phenylacetyl)amino]pentanamide], the IC50 worked out at 4.43 nM.

The experiment is the same for the next values; noted with them: read-out: IC 50 nM (In Vitro Inhibition of TACE); Table 15.
Take “(2R)-2-({[4-(But-2-ynyloxy)phenyl]sulfonyl}amino)-5-{[2-(3,4-dichlorophenyl)acetyl]amino}-N-hydroxypentanamide [Example 336]”: the IC50 worked out at 6.11 nM.
As to `CC#CCOc1ccc(S(=O)(=O)NC(CSC(C)(C)C)C(=O)NO)cc1` (stereo not shown) [Example 73], the IC50 amounted to 451 ± 31 nM.
